Holding throughout (format): cell-based
The test system of one experiment is L-selectin-IgG. As to the kind of experiment: Binding inhibitory activity test: HL-60 cell binding to immobilized L-selectin-IgG. The conditions noted are these: 0.3 mM test compound; HL-60 cells; 100 ng L-selectin-IgG; average of 5 wells ± SE. On the procedure: [The source words this procedure for another target and says it was used here with some conditions changed.] (§1) The binding inhibitory activity of the test compound was measured in terms of the inhibition of binding of premyelocytic leukemia HL-60 cells to immobilized recombinant selectin-IgG fusion proteins by addition of the test compound to the binding reaction system, in accordance with the method described in the above-identified reference.
(§2) Stated more specifically, 20 ng of purified P-selectin-IgG was added to each well of a microtiter plate (96 wells, Nunc Maxisorp) and immobilized. Phosphate buffered saline (PBS) was added to each well to make a total volume of 100 μl and the plate was allowed to stand at 4° C. overnight. The excess solution was removed by aspiration, and non-specific binding sites were blocked with PBS containing 1% bovine serum albumin (BSA) at room temperature for 1 hour. After removal of the blocking solution by aspiration, 0.3 mM of the test compound as dissolved in 100 μl of a binding buffer (RPMI1640), and 10^6 cells/ml of HL-60 cells as suspended in 100 μl of the binding buffer were added to each well. The plate was centrifuged at 500 rotations per minute for 2 minutes at room temperature, and each well was filled with the binding buffer. The plate was carefully sealed with an adhesive tape so as to avoid trapping any air bubbles. The plate was turned upside down and centrifuged at 500 rotations per minute for 10 minutes to remove unbound HL-60 cells. The adhesive tape was peeled off and the buffer was removed by aspiration. The number of cells bound/well was determined using a cell counting kit (WST-1 assay kit, product of Dojin Kagaku K.K.) (M. Ishiyama. M. Shiga, M. Mizoguchi and P. He, Chem. Pharm. Bull., 41, 1118-1122 (1994)).
(§3) The binding inhibition (%) was calculated from the number (M) of bound cells achieved in the test using the test compound and the number (N) of bound cells achieved in the comparative test not using the test compound, according to the following equation:
(§4) Binding inhibition (%)=100×(N−M)/N […]
(§5) The data were expressed as an average value of 5 wells±standard error (SE).

A further experiment relates to P-selectin-IgG. As to the kind of experiment: Binding inhibitory activity test: HL-60 cell binding to immobilized P-selectin-IgG. As to conditions: 0.3 mM test compound; HL-60 cells; 20 ng P-selectin-IgG per well; average of 5 wells ± SE.
A further experiment deals with E-selectin-IgG. As to the kind of experiment: Binding inhibitory activity test: HL-60 cell binding to immobilized E-selectin-IgG. The conditions noted are these: 0.3 mM test compound; HL-60 cells; 40 ng E-selectin-IgG; average of 5 wells ± SE. On the procedure:
[The source words this procedure for another target and says it was used here with some conditions changed.] as §1, §2, §3, §4, §5

For `CCCCCCCCCCCCCCC(CCCCCCCCCCCCCC)CO[C@@H]1O[C@H](CO)[C@H](O)[C@H](OS(=O)(=O)O)[C@H]1O` [Comparative compound, 2-(tetradecyl)hexadecyl 3-O-sulfo-β-D-galactopyranoside], the “Binding inhibition (%) L-selectin” value in the experiment on L-selectin-IgG was determined as 13 ± 3%. The “Binding inhibition (%) P-selectin” value in the experiment with P-selectin-IgG was determined as 6 ± 3%. Moreover, the “Binding inhibition (%) E-selectin” value in the experiment on E-selectin-IgG was 0 ± 5%.
The matching figures for `CCCCCCCCCCCCCCC(CCCCCCCCCCCCCC)CO[C@@H]1O[C@H](CO)[C@H](O)[C@H](CC(=O)O)[C@H]1O` [Compound of the invention, 2-(tetradecyl)hexadecyl 3-deoxy-3-C-(carboxymethyl)-β-D-glactopyranoside]: 92 ± 3%, 79 ± 3% and 12 ± 8%.
The matching figures for sialyl Lewis-x [SLe^x]: 0 ± 5%, 3 ± 6% and 0 ± 4%.

The values above are taken from US6503885B1, “Carboxymethylgalactose derivatives” (Otsuka Pharmaceutical Co., Ltd., priority 1998, dated 2003).
